What was measured:
ALK = target: T1, ALK (Homo sapiens, UniProt Q9UM73); experiment: KINOMEscan scanEDGE; type: binding; conditions: read-out: Percent Control
T1 construct: purchased Eurofins DiscoverX
How it was run: (§1)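 Test compound is screened at 10 μM only, no dose-response, across 97 kinases. Each value gives remaining % activity relative to DMSO; lower indicates higher affinity.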

BRAF(V600E) = target: T2, BRAF(V600E) (Homo sapiens, UniProt P15056, V600E); experiment: KINOMEscan scanEDGE; type: binding; conditions: read-out: Percent Control
T2 construct: purchased Eurofins DiscoverX
How it was run: as §1

MKNK1 = target: T3, MKNK1 (Homo sapiens, UniProt Q9BUB5); experiment: KINOMEscan scanEDGE; type: binding; conditions: read-out: Percent Control
T3 construct: purchased Eurofins DiscoverX (KINOMEscan scanEDGE service)
How it was run: as §1

PLK3 = target: T4, PLK3 (Homo sapiens, UniProt Q9H4B4); experiment: KINOMEscan scanEDGE; type: binding; conditions: read-out: Percent Control
T4 construct: purchased Eurofins DiscoverX KINOMEscan scanEDGE
T4 sequence (Q9H4B4 whole entry): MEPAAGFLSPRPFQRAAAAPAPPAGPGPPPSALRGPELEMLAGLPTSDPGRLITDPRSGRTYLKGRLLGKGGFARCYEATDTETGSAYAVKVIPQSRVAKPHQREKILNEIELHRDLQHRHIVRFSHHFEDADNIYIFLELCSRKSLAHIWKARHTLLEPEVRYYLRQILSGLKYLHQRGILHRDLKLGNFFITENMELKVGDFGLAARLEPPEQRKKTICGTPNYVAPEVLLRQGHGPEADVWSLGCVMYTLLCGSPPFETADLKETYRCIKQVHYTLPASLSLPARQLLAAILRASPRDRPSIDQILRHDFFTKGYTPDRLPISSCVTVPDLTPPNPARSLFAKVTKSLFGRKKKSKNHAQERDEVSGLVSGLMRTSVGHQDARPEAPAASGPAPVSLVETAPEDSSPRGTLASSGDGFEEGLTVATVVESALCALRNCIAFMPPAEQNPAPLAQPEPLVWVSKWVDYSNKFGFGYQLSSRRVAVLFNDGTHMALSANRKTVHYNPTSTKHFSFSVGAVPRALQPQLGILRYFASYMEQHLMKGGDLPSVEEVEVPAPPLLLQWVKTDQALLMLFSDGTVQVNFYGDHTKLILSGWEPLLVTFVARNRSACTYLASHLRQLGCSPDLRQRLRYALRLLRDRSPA
How it was run: as §1

PRKCE = target: T5, PRKCE (Homo sapiens, UniProt Q02156); experiment: KINOMEscan scanEDGE; type: binding; conditions: read-out: Percent Control
T5 construct: purchased Eurofins DiscoverX KINOMEscan scanEDGE
How it was run: as §1

ABL1-phosphorylated = target: T6, ABL1-phosphorylated (Homo sapiens, UniProt P00519); conditions: 10 μM; cited from earlier work
T6 construct: purchased Eurofins DiscoverX

ADCK3 = target: T7, ADCK3 (Homo sapiens, UniProt Q8NI60); conditions: 10 μM; cited from earlier work
T7 construct: purchased Eurofins DiscoverX

AKT1 = target: T8, AKT1 (Homo sapiens, UniProt P31749); conditions: 10 μM; cited from earlier work
T8 construct: purchased Eurofins DiscoverX

AKT2 = target: T9, AKT2 (Homo sapiens, UniProt P31751); conditions: 10 μM; cited from earlier work
T9 construct: purchased Eurofins DiscoverX
T9 sequence (P31751 whole entry): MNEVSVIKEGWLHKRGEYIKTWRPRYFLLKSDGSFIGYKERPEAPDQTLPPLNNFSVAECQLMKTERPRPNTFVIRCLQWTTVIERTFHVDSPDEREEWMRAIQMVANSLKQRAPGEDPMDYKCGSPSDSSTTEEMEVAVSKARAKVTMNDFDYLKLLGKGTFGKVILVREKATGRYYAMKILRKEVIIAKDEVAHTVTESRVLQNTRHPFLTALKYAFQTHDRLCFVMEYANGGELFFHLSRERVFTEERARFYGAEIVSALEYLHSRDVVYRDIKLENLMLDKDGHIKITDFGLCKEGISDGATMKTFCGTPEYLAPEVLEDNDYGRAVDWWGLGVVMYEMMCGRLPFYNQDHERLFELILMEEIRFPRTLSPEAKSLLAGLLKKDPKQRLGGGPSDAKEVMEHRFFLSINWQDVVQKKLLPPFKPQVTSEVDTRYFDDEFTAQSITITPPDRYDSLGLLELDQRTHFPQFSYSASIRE

AURKB = target: T10, AURKB (Homo sapiens, UniProt Q96GD4); conditions: 10 μM; cited from earlier work
T10 construct: purchased Eurofins DiscoverX

CDK11 = target: T11, CDK11 (Homo sapiens, UniProt Q9BWU1); conditions: 10 μM; cited from earlier work
T11 construct: purchased Eurofins DiscoverX

CDK7 = target: T12, CDK7 (Homo sapiens, UniProt P50613); conditions: 10 μM; cited from earlier work
T12 construct: purchased Eurofins DiscoverX
T12 sequence (P50613 whole entry): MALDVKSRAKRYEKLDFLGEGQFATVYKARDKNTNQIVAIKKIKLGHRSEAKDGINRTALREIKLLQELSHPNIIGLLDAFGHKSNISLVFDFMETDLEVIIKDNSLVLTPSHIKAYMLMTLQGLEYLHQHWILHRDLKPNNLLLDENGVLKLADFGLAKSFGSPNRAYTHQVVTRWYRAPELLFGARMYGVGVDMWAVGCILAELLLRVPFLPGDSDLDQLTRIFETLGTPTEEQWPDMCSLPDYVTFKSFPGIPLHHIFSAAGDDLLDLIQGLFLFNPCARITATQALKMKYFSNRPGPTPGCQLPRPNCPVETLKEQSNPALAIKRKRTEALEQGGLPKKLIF

CDK9 = target: T13, CDK9 (Homo sapiens, UniProt P50750); conditions: 10 μM; cited from earlier work
T13 construct: purchased Eurofins DiscoverX

EGFR = target: T14, EGFR (Homo sapiens, UniProt P00533); conditions: 10 μM; cited from earlier work
T14 construct: purchased Eurofins DiscoverX

ERK1 = target: T15, ERK1 (Homo sapiens, UniProt P27361); conditions: 10 μM; cited from earlier work
T15 construct: purchased Eurofins DiscoverX
T15 sequence (P27361 whole entry): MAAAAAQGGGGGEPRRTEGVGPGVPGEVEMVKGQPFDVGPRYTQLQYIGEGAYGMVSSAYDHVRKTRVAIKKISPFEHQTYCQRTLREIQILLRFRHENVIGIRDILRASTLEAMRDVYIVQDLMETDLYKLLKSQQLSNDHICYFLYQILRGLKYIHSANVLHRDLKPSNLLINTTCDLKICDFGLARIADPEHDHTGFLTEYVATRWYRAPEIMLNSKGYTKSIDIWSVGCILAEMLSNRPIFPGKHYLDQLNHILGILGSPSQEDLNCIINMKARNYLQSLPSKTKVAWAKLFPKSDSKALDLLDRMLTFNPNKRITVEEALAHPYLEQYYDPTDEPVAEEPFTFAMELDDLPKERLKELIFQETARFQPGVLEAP

FAK = target: T16, FAK (Homo sapiens, UniProt Q05397); conditions: 10 μM; cited from earlier work
T16 construct: purchased Eurofins DiscoverX

FGFR2 = target: T17, FGFR2 (Homo sapiens, UniProt P21802); conditions: 10 μM; cited from earlier work
T17 construct: purchased Eurofins DiscoverX
T17 sequence (P21802 22-821): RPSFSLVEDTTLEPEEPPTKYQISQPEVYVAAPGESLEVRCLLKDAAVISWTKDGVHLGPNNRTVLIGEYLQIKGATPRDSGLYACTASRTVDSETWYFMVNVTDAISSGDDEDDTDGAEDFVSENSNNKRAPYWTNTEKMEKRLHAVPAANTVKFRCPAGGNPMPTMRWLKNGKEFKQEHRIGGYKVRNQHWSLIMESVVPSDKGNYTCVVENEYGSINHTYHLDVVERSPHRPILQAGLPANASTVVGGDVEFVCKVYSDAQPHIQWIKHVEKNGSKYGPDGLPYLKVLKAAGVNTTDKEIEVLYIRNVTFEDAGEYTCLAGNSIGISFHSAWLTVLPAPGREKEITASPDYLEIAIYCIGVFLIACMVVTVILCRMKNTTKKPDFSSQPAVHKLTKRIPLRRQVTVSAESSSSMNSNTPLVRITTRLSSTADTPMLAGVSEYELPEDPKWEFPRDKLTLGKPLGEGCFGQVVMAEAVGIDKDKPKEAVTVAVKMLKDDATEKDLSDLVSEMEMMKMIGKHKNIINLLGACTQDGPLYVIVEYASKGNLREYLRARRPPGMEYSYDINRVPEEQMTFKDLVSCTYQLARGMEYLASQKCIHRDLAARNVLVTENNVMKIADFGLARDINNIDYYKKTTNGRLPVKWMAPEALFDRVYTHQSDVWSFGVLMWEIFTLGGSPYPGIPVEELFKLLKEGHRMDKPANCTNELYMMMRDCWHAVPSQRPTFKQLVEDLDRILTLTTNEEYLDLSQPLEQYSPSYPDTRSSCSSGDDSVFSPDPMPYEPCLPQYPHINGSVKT

FGFR3 = target: T18, FGFR3 (Homo sapiens, UniProt P22607); conditions: 10 μM; cited from earlier work
T18 construct: purchased Eurofins DiscoverX

IKK-beta = target: T19, IKK-beta (Homo sapiens, UniProt O14920); conditions: 10 μM; cited from earlier work
T19 construct: purchased Eurofins DiscoverX

JNK2 = target: T20, JNK2 (Homo sapiens, UniProt P45984); conditions: 10 μM; cited from earlier work
T20 construct: purchased Eurofins DiscoverX

LKB1 = target: T21, LKB1 (Homo sapiens, UniProt Q15831); conditions: 10 μM; cited from earlier work
T21 construct: purchased Eurofins DiscoverX (KINOMEscan scanEDGE service)

MAPKAPK2 = target: T22, MAPKAPK2 (Homo sapiens, UniProt P49137); conditions: 10 μM; cited from earlier work
T22 construct: purchased Eurofins DiscoverX (KINOMEscan scanEDGE service)

MARK3 = target: T23, MARK3 (Homo sapiens, UniProt P27448); conditions: 10 μM; cited from earlier work
T23 construct: purchased Eurofins DiscoverX (KINOMEscan scanEDGE service)
T23 sequence (P27448 whole entry): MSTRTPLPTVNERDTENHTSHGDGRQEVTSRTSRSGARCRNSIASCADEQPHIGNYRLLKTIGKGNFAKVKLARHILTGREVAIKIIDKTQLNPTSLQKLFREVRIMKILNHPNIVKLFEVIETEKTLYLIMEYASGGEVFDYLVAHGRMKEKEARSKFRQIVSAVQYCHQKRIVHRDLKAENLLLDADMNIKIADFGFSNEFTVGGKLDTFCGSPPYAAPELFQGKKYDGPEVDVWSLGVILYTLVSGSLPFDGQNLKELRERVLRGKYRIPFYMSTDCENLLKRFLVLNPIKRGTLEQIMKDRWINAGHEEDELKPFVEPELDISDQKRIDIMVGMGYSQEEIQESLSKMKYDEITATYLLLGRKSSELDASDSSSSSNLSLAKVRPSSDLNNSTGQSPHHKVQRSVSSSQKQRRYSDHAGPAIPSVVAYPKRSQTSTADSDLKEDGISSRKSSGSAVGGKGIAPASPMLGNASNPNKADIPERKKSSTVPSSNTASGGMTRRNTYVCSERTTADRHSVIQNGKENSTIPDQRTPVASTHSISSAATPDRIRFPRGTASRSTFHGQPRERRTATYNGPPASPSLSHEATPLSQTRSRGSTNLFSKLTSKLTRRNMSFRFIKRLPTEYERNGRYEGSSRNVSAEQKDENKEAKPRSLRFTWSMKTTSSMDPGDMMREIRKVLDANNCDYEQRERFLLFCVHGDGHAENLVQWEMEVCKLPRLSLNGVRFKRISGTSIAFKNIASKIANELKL

MEK2 = target: T24, MEK2 (Homo sapiens, UniProt P36507); conditions: 10 μM; cited from earlier work
T24 construct: purchased Eurofins DiscoverX (KINOMEscan scanEDGE service)
T24 sequence (P36507 whole entry): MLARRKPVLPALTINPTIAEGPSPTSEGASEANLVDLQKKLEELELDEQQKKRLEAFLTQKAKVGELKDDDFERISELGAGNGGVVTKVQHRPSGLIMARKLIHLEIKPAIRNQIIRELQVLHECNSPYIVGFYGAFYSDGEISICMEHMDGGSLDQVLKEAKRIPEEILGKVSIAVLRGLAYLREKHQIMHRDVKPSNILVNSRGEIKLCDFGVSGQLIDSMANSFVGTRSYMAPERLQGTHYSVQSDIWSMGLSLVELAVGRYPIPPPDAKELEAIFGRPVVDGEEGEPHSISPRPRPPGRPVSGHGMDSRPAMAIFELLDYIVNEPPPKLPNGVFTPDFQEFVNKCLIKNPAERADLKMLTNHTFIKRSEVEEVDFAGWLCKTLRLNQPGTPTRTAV

MLK1 = target: T25, MLK1 (Homo sapiens, UniProt P80192); conditions: 10 μM; cited from earlier work
T25 construct: purchased Eurofins DiscoverX (KINOMEscan scanEDGE service)

p38-alpha = target: T26, p38-alpha (Homo sapiens, UniProt Q16539); conditions: 10 μM; cited from earlier work
T26 construct: purchased Eurofins DiscoverX (KINOMEscan scanEDGE service)

PAK4 = target: T27, PAK4 (Homo sapiens, UniProt O96013); conditions: 10 μM; cited from earlier work
T27 construct: purchased Eurofins DiscoverX (KINOMEscan scanEDGE service)

PDGFRA = target: T28, PDGFRA (Homo sapiens, UniProt P16234); conditions: 10 μM; cited from earlier work
T28 construct: purchased Eurofins DiscoverX (KINOMEscan scanEDGE service)

PDPK1 = target: T29, PDPK1 (Homo sapiens, UniProt O15530); conditions: 10 μM; cited from earlier work
T29 construct: purchased Eurofins DiscoverX (KINOMEscan scanEDGE service)

PIM1 = target: T30, PIM1 (Homo sapiens, UniProt P11309); conditions: 10 μM; cited from earlier work
T30 construct: purchased Eurofins DiscoverX (KINOMEscan scanEDGE service)

PIM2 = target: T31, PIM2 (Homo sapiens, UniProt Q9P1W9); conditions: 10 μM; cited from earlier work
T31 construct: purchased Eurofins DiscoverX (KINOMEscan scanEDGE service)
T31 sequence (Q9P1W9 whole entry): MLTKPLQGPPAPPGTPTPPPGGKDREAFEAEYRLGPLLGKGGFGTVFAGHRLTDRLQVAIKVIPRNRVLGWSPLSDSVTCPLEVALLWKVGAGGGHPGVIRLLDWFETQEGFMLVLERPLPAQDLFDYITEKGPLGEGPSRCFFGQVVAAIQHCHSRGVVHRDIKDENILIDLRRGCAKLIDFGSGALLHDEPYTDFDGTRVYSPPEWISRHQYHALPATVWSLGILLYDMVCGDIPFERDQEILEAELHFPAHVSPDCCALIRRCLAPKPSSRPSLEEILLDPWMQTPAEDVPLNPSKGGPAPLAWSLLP

PLK1 = target: T32, PLK1 (Homo sapiens, UniProt P53350); conditions: 10 μM; cited from earlier work
T32 construct: purchased Eurofins DiscoverX KINOMEscan scanEDGE
T32 sequence (P53350 whole entry): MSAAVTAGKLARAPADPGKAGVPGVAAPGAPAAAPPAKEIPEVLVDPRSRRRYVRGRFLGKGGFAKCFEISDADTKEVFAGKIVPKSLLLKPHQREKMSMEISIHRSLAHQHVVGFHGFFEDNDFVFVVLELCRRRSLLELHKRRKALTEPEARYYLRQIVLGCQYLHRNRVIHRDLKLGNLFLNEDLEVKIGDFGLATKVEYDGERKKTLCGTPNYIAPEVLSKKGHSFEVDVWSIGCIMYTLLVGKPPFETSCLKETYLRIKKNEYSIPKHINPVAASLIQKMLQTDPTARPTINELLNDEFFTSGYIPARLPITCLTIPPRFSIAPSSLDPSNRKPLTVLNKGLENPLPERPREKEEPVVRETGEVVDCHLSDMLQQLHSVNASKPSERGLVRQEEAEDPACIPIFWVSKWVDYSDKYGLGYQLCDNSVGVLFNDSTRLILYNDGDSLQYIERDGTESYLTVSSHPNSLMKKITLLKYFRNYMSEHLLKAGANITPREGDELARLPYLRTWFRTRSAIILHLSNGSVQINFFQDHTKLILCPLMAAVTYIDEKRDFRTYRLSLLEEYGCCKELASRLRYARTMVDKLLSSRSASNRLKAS

PLK4 = target: T33, PLK4 (Homo sapiens, UniProt O00444); conditions: 10 μM; cited from earlier work
T33 construct: purchased Eurofins DiscoverX KINOMEscan scanEDGE

[1] = target: T34, RSK2(Kin.Dom.1-N-terminal) (Homo sapiens, UniProt P51812); conditions: 10 μM; cited from earlier work
T34 construct: RSK2(Kin.Dom.1-N-terminal); purchased Eurofins DiscoverX KINOMEscan scanEDGE
T34 sequence (P51812 68-327 limits assumed): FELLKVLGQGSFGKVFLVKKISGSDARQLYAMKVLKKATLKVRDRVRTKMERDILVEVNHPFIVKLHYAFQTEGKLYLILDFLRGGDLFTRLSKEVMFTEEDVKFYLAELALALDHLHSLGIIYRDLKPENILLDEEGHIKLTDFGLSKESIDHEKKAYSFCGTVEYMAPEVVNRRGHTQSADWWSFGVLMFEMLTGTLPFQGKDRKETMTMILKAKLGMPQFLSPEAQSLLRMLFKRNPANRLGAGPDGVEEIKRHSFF

SNARK = target: T35, SNARK (Homo sapiens, UniProt Q9H093); conditions: 10 μM; cited from earlier work
T35 construct: purchased Eurofins DiscoverX KINOMEscan scanEDGE

SRC = target: T36, SRC (Homo sapiens, UniProt P12931); conditions: 10 μM; cited from earlier work
T36 construct: purchased Eurofins DiscoverX KINOMEscan scanEDGE

[2] = target: T37, TYK2(JH1domain-catalytic) (Homo sapiens, UniProt P29597); conditions: 10 μM; cited from earlier work
T37 construct: TYK2(JH1domain-catalytic); purchased Eurofins DiscoverX KINOMEscan scanEDGE

VEGFR2 = target: T38, VEGFR2 (Homo sapiens, UniProt P35968); conditions: 10 μM; cited from earlier work
T38 construct: purchased Eurofins DiscoverX KINOMEscan scanEDGE

Question: With `COc1ccc2c3ccnc(C)c3n(CCN(C)C)c2c1.O=C(O)/C=C/C(=O)O` [HTW_A_8 fumarate, 2-(7-methoxy-1-methyl-9H-pyrido[3,4-b]indol-9-yl)-N,N-dimethylethan-1-amine Fumarate Salt (2:3)] as the compound, how does the remaining binding at 10 µM (ALK) read?
Answer: 79%

Question: And the remaining binding at 10 µM (BRAF(V600E))?
Answer: 100%

Question: What about the remaining binding at 10 µM (MKNK1) of the same compound?
Answer: 93%

Question: What about the remaining binding at 10 µM (PLK3) of the same compound?
Answer: 96%

Question: And the remaining binding at 10 µM (PRKCE)?
Answer: 100%

Question: Which “Percent Control” value (ABL1-phosphorylated) does the source give for `COc1ccc2c(c1)[nH]c1c(C)nccc12` [Harmine, harmine] here?
Answer: 100%

Question: What about the “Percent Control” value (ADCK3) of the same compound?
Answer: 88%

Question: And the “Percent Control” value (AKT1)?
Answer: 96%

Question: And the “Percent Control” value (AKT2)?
Answer: 80%

Question: And the “Percent Control” value (AURKB)?
Answer: 80%

Question: What about the “Percent Control” value (CDK11) of the same compound?
Answer: 83%

Question: What about the “Percent Control” value (CDK7) of the same compound?
Answer: 21%

Question: What about the “Percent Control” value (CDK9) of the same compound?
Answer: 67%

Question: What about the “Percent Control” value (EGFR) of the same compound?
Answer: 96%

Question: What about the “Percent Control” value (ERK1) of the same compound?
Answer: 99%

Question: And the “Percent Control” value (FAK)?
Answer: 100%

Question: And the “Percent Control” value (FGFR2)?
Answer: 91%

Question: What about the “Percent Control” value (FGFR3) of the same compound?
Answer: 94%

Question: What about the “Percent Control” value (IKK-beta) of the same compound?
Answer: 95%

Question: What about the “Percent Control” value (JNK2) of the same compound?
Answer: 58%

Question: And the “Percent Control” value (LKB1)?
Answer: 91%

Question: And the “Percent Control” value (MAPKAPK2)?
Answer: 72%

Question: And the “Percent Control” value (MARK3)?
Answer: 91%

Question: And the “Percent Control” value (MEK2)?
Answer: 96%

Question: And the “Percent Control” value (MLK1)?
Answer: 100%

Question: And the “Percent Control” value (p38-alpha)?
Answer: 95%

Question: What about the “Percent Control” value (PAK4) of the same compound?
Answer: 76%

Question: What about the “Percent Control” value (PDGFRA) of the same compound?
Answer: 90%

Question: And the “Percent Control” value (PDPK1)?
Answer: 100%

Question: What about the “Percent Control” value (PIM1) of the same compound?
Answer: 45%

Question: What about the “Percent Control” value (PIM2) of the same compound?
Answer: 39%

Question: And the “Percent Control” value (PLK1)?
Answer: 93%

Question: And the “Percent Control” value (PLK4)?
Answer: 77%

Question: And the “Percent Control” value [1]?
Answer: 72%

Question: What about the “Percent Control” value (SNARK) of the same compound?
Answer: 95%

Question: And the “Percent Control” value (SRC)?
Answer: 90%

Question: What about the “Percent Control” value [2] of the same compound?
Answer: 96%

Question: And the “Percent Control” value (VEGFR2)?
Answer: 78%
